Consider 9 compounds from patent US9517228B2, “Cannabinoid receptor antagonists/inverse agonists useful for treating metabolic disorders, including obesity and diabetes” (Jenrin Discovery, priority 2012, dated 2016).

The first assay deals with CB1R (Mus musculus (Mouse), UniProt P47746). The experiment in a line: CB1R competition displacement binding with [3H]CP-55,940. To be noted: [3H]CP-55,940 radioligand, crude membranes from mouse brain, triplicates; read-out: CB1 IC50. How it is done: Compound binding to CB1R was assessed in competition displacement assays using [3H]CP-55,940 as the radioligand and crude membranes from mouse brain. See Tam, J., Vemuri, V. K., Liu, J., Batkai, S., Mukhopadhyay, B., Godlewski, G., Osei-Hyiaman, D., Ohnuma, S., Ambudkar, S. V., Pickel, J., et al., J. Clin. Invest. 2010, 120, 2953-2966. All data were in triplicates with Ki values determined from three independent experiments.
CB1R, sequence (P47746 whole entry): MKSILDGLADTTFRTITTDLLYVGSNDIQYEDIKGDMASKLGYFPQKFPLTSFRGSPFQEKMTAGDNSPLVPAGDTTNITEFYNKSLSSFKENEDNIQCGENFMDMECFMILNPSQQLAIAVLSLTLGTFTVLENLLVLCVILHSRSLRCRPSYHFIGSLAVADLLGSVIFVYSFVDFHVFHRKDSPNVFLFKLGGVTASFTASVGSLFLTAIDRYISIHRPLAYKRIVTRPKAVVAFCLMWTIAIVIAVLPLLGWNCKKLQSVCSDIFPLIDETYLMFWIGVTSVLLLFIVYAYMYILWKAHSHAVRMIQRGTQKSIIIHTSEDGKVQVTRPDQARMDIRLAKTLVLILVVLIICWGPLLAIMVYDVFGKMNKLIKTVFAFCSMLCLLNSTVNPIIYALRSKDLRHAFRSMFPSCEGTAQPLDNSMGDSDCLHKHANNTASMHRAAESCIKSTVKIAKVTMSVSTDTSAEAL
For the compound `CC(C)[C@H](N/C(=N\S(=O)(=O)c1ccc(Cl)cc1)N1C[C@@H](c2ccccc2)C(c2ccc(Cl)cc2)=N1)C(N)=O` [Example 4a], the 50% inhibitory concentration (IC50) (usually the concentration needed to halve the response being measured) was > 1000 nM.
The same measure, in the same setting: to `C[C@@H](O)[C@H](N/C(=N\S(=O)(=O)c1ccc(Cl)cc1)N1C[C@H](c2ccccc2)C(c2ccc(Cl)cc2)=N1)C(N)=O` [Example 2, (2S,3R)-2-((S)-3-(4-chlorophenyl)-N′-((4-chlorophenyl)sulfonyl)-4-phenyl-4,5-dihydro-1H-pyrazole-1-carboximidamido)-3-hydroxybutanamide] belongs < 100 nM.
Still for that read-out and setting: to `NC(=O)CN/C(=N\S(=O)(=O)c1ccc(Cl)cc1)N1C[C@H](c2ccccc2)C(c2ccc(Cl)cc2)=N1` [Example 1] belongs < 100 nM.
On to `CC(C)[C@H](N/C(=N\S(=O)(=O)c1ccc(Cl)cc1)N1C[C@H](c2ccccc2)C(c2ccc(Cl)cc2)=N1)C(N)=O` [Example 4], for which the IC50 was < 100 nM.
The same measure, in the same setting: to `NC(=O)[C@H](CO)N/C(=N\S(=O)(=O)c1ccc(Cl)cc1)N1C[C@@H](c2ccccc2)C(c2ccc(Cl)cc2)=N1` [Example 3a] belongs 500 to 1000 nM; to `NC(=O)[C@H](CO)N/C(=N\S(=O)(=O)c1ccc(Cl)cc1)N1C[C@H](c2ccccc2)C(c2ccc(Cl)cc2)=N1` [Example 3], < 100 nM; to `C[C@@H](O)[C@H](N/C(=N\S(=O)(=O)c1ccc(Cl)cc1)N1C[C@@H](c2ccccc2)C(c2ccc(Cl)cc2)=N1)C(N)=O` [Example 2a, (2S,3R)-2-((R)-3-(4-chlorophenyl)-N′-((4-chlorophenyl)sulfonyl)-4-phenyl-4,5-dihydro-1H-pyrazole-1-carboximidamido)-3-hydroxybutanamide], > 1000 nM.
The same measure, in the same setting: to `NC(=O)CN/C(=N\S(=O)(=O)c1ccc(Cl)cc1)N1C[C@@H](c2ccccc2)C(c2ccc(Cl)cc2)=N1` [Example 1a] belongs > 1000 nM.

Tested on in a further assay: not given
Experiment: not given
To be noted: type 2 diabetes patients not on other anti-diabetic medications, six months of treatment, baseline value 7.9; cited from earlier work.
`Cc1c(C(=O)NN2CCCCC2)nn(-c2ccc(Cl)cc2Cl)c1-c1ccc(Cl)cc1` [rimonabant]: the HbA1c levels lowered is recorded as 0.8%.
